This passage reports TGI results from PubChem BioAssay (NCI).

Each structure is given as a SMILES string.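 Values below derive from 48-hour exposures of cells grown in 96-well plates, with endpoints linearly interpolated between the two concentrations bracketing the appropriate inhibition level. TGI: concentration producing complete growth inhibition.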 A value given as a limit tells only on which side of the number the result lay.

One test relates to A549 NSCLC. Kind of test: inhibition of tumour cell growth, NCI panel, 48 h.
On to `CCN(CCCl)c1cc(CN(C)C)cc(NC(=O)c2ccc(C(=O)Nc3cccc(CN(C)C)c3)cc2)c1`, for which the TGI is 14.5 µM.

Consider `CC(C)N1CN(c2ccccc2)C2(CCN(CCCC(=O)c3ccc(F)cc3)CC2)C1=O`, for which the TGI is above 100 µM.

For the compound `CC(C)=CCC[C@@H](C)C1=C(O)C(N)=C(C)C(=O)C1=O`, the TGI is above 100 µM.

On to `CCOC(=O)C1=CC(C)(C(=O)OCC)Nc2c(nc(N)[nH]c2=O)N1` (stereo not given), for which the TGI is above 10 µM.

Regarding `c1ccc(C2CC(=NC3CCCCC3)Nc3ccccc3N2)cc1` (stereo not given), the TGI is above 100 µM.

Another test relates to CCRF-CEM leukemia. As to the kind of experiment: inhibition of tumour cell growth, NCI panel, 48 h.
As for `CCN(CCCl)c1cc(CN(C)C)cc(NC(=O)c2ccc(C(=O)Nc3cccc(CN(C)C)c3)cc2)c1`, the TGI was 0.669 µM.

`CC(C)N1CN(c2ccccc2)C2(CCN(CCCC(=O)c3ccc(F)cc3)CC2)C1=O` came in with a TGI of 9.61 µM.

In turn, `CC(C)=CCC[C@@H](C)C1=C(O)C(N)=C(C)C(=O)C1=O` displayed a TGI above 100 µM.

The compound `CCOC(=O)C1=CC(C)(C(=O)OCC)Nc2c(nc(N)[nH]c2=O)N1` (stereo not given) registered a TGI above 10 µM.

With `c1ccc(C2CC(=NC3CCCCC3)Nc3ccccc3N2)cc1` (stereo not given), the TGI was above 100 µM.

In another test the test system is HCT-116 colon. Kind of test: inhibition of tumour cell growth, NCI panel, 48 h.
As to `CCN(CCCl)c1cc(CN(C)C)cc(NC(=O)c2ccc(C(=O)Nc3cccc(CN(C)C)c3)cc2)c1`, the TGI came out at 14.4 µM.

`CC(C)N1CN(c2ccccc2)C2(CCN(CCCC(=O)c3ccc(F)cc3)CC2)C1=O` registered a TGI of 5.52 µM.

With `CC(C)=CCC[C@@H](C)C1=C(O)C(N)=C(C)C(=O)C1=O`, the TGI is above 100 µM.

For the compound `CCOC(=O)C1=CC(C)(C(=O)OCC)Nc2c(nc(N)[nH]c2=O)N1` (stereo not given), the TGI was above 10 µM.

`c1ccc(C2CC(=NC3CCCCC3)Nc3ccccc3N2)cc1` (stereo not given) showed a TGI above 100 µM.

In the next test the test system is IGROV1 ovarian. Kind of test: inhibition of tumour cell growth, NCI panel, 48 h.
The compound `CCN(CCCl)c1cc(CN(C)C)cc(NC(=O)c2ccc(C(=O)Nc3cccc(CN(C)C)c3)cc2)c1` returned a TGI of 10 µM.

In turn, `CC(C)N1CN(c2ccccc2)C2(CCN(CCCC(=O)c3ccc(F)cc3)CC2)C1=O` had a TGI of 17.5 µM.

`CC(C)=CCC[C@@H](C)C1=C(O)C(N)=C(C)C(=O)C1=O` displayed a TGI above 40.2 µM.

`CCOC(=O)C1=CC(C)(C(=O)OCC)Nc2c(nc(N)[nH]c2=O)N1` (stereo not given) came in with a TGI above 10 µM.

`c1ccc(C2CC(=NC3CCCCC3)Nc3ccccc3N2)cc1` (stereo not given) returned a TGI above 100 µM.

A further test has as its system K-562 leukemia. Kind of test: inhibition of tumour cell growth, NCI panel, 48 h.
Turning to `CCN(CCCl)c1cc(CN(C)C)cc(NC(=O)c2ccc(C(=O)Nc3cccc(CN(C)C)c3)cc2)c1`, the TGI was determined as 1.42 µM.

In the case of `CC(C)N1CN(c2ccccc2)C2(CCN(CCCC(=O)c3ccc(F)cc3)CC2)C1=O`, the TGI was 69.7 µM.

Compound `CC(C)=CCC[C@@H](C)C1=C(O)C(N)=C(C)C(=O)C1=O` came in with a TGI above 100 µM.

On to `CCOC(=O)C1=CC(C)(C(=O)OCC)Nc2c(nc(N)[nH]c2=O)N1` (stereo not given), for which the TGI is above 10 µM.

As for `c1ccc(C2CC(=NC3CCCCC3)Nc3ccccc3N2)cc1` (stereo not given), the TGI is above 100 µM.

The test system of the next test is MALME-3M melanoma. As to the kind of experiment: inhibition of tumour cell growth, NCI panel, 48 h.
Turning to `CCN(CCCl)c1cc(CN(C)C)cc(NC(=O)c2ccc(C(=O)Nc3cccc(CN(C)C)c3)cc2)c1`, the TGI was 2.81 µM.

In turn, `CC(C)N1CN(c2ccccc2)C2(CCN(CCCC(=O)c3ccc(F)cc3)CC2)C1=O` yielded a TGI of 29.6 µM.

In turn, `CC(C)=CCC[C@@H](C)C1=C(O)C(N)=C(C)C(=O)C1=O` gave a TGI above 100 µM.

`CCOC(=O)C1=CC(C)(C(=O)OCC)Nc2c(nc(N)[nH]c2=O)N1` (stereo not given): the TGI was above 10 µM.

For the compound `c1ccc(C2CC(=NC3CCCCC3)Nc3ccccc3N2)cc1` (stereo not given), the TGI came out at 50.1 µM.

Another test relates to NCI-H226 lung. As to the kind of experiment: inhibition of tumour cell growth, NCI panel, 48 h.
Consider `CCN(CCCl)c1cc(CN(C)C)cc(NC(=O)c2ccc(C(=O)Nc3cccc(CN(C)C)c3)cc2)c1`, for which the TGI worked out at 17.2 µM.

In the case of `CC(C)N1CN(c2ccccc2)C2(CCN(CCCC(=O)c3ccc(F)cc3)CC2)C1=O`, the TGI is 46.4 µM.

For the compound `CC(C)=CCC[C@@H](C)C1=C(O)C(N)=C(C)C(=O)C1=O`, the TGI was above 100 µM.

`CCOC(=O)C1=CC(C)(C(=O)OCC)Nc2c(nc(N)[nH]c2=O)N1` (stereo not given) displayed a TGI above 10 µM.

In turn, `c1ccc(C2CC(=NC3CCCCC3)Nc3ccccc3N2)cc1` (stereo not given) registered a TGI above 100 µM.

Another test concerns OVCAR-4 ovarian. As to the kind of experiment: inhibition of tumour cell growth, NCI panel, 48 h.
`CCN(CCCl)c1cc(CN(C)C)cc(NC(=O)c2ccc(C(=O)Nc3cccc(CN(C)C)c3)cc2)c1` returned a TGI of 6.08 µM.

`CC(C)N1CN(c2ccccc2)C2(CCN(CCCC(=O)c3ccc(F)cc3)CC2)C1=O`: the TGI was above 76 µM.

Regarding `CC(C)=CCC[C@@H](C)C1=C(O)C(N)=C(C)C(=O)C1=O`, the TGI was above 100 µM.

Turning to `CCOC(=O)C1=CC(C)(C(=O)OCC)Nc2c(nc(N)[nH]c2=O)N1` (stereo not given), the TGI was above 10 µM.

The compound `c1ccc(C2CC(=NC3CCCCC3)Nc3ccccc3N2)cc1` (stereo not given) displayed a TGI above 100 µM.

The subject of a further test is OVCAR-5 ovarian. Kind of test: inhibition of tumour cell growth, NCI panel, 48 h.
Consider `CCN(CCCl)c1cc(CN(C)C)cc(NC(=O)c2ccc(C(=O)Nc3cccc(CN(C)C)c3)cc2)c1`, for which the TGI was found to be 93.2 µM.

`CC(C)N1CN(c2ccccc2)C2(CCN(CCCC(=O)c3ccc(F)cc3)CC2)C1=O` had a TGI of 30.9 µM.

The compound `CC(C)=CCC[C@@H](C)C1=C(O)C(N)=C(C)C(=O)C1=O` registered a TGI above 100 µM.

As to `CCOC(=O)C1=CC(C)(C(=O)OCC)Nc2c(nc(N)[nH]c2=O)N1` (stereo not given), the TGI is above 10 µM.

In turn, `c1ccc(C2CC(=NC3CCCCC3)Nc3ccccc3N2)cc1` (stereo not given) returned a TGI above 100 µM.

The next test relates to U251 CNS. As to the kind of experiment: inhibition of tumour cell growth, NCI panel, 48 h.
Consider `CCN(CCCl)c1cc(CN(C)C)cc(NC(=O)c2ccc(C(=O)Nc3cccc(CN(C)C)c3)cc2)c1`, for which the TGI came to 0.667 µM.

Compound `CC(C)N1CN(c2ccccc2)C2(CCN(CCCC(=O)c3ccc(F)cc3)CC2)C1=O` registered a TGI above 100 µM.

Regarding `CC(C)=CCC[C@@H](C)C1=C(O)C(N)=C(C)C(=O)C1=O`, the TGI is above 100 µM.

`CCOC(=O)C1=CC(C)(C(=O)OCC)Nc2c(nc(N)[nH]c2=O)N1` (stereo not given) returned a TGI above 10 µM.

For the compound `c1ccc(C2CC(=NC3CCCCC3)Nc3ccccc3N2)cc1` (stereo not given), the TGI is above 100 µM.
